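Where inhibition never reached the appropriate level, the endpoint shown equals the highest concentration tested. Otherwise, values were interpolated linearly from a five-concentration, 48-hour dose response in 96-well plates. TGI: total growth inhibition.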 Where a SMILES comes first, the peptide text is derived from it. [ ]: non-standard residue; d: D form. The star is where a group is joined. ξ: configuration not given here. ξF = NC(Cc1ccccc1)C(=O)O; Cbz = O=C(OCc1ccccc1)*; Aib = CC(C)(N)C(=O)O; NHNH2 = NN*
Legend:
Test in all cases: NCI anticancer screen, dose series, 48 h
[1] = system: M14 melanoma
[2] = system: SF-539 CNS
[3] = system: ACHN renal
[4] = system: NCI/ADR-RES ovarian
[5] = system: SK-MEL-28 melanoma
[6] = system: SK-MEL-2 melanoma
[7] = system: IGROV1 ovarian
[8] = system: MOLT-4 leukemia
[9] = system: PC-3 prostate
[10] = system: BT-549 breast
[11] = system: MDA-N
[12] = system: HOP-92 NSCLC
[13] = system: MDA-MB-435
[14] = system: CAKI-1 renal
[15] = system: K-562 leukemia
[16] = system: SF-268 CNS
[17] = system: SR leukemia
[18] = system: HL-60(TB) leukemia
[19] = system: HCC-2998 colon

**Q.** With CC(C)(NC(=O)OCc1ccccc1)C(=O)NC(Cc1ccccc1)C(=O)NN (stereo not drawn) (Cbz-[Aib]-[ξF]-NHNH2) as the molecule, how does the TGI [1] read?
**A.** The TGI was > 100 µM.

**Q.** What about the TGI [2] of the same molecule?
**A.** Its TGI is > 100 µM.

**Q.** And the TGI [3]?
**A.** The TGI was > 100 µM.

**Q.** And the TGI [4]?
**A.** Its TGI is > 100 µM.

**Q.** What about the TGI [5] of the same molecule?
**A.** Its TGI is > 100 µM.

**Q.** What about the TGI [6] of the same molecule?
**A.** The TGI was > 100 µM.

**Q.** And the TGI [7]?
**A.** Its TGI is > 100 µM.

**Q.** What about the TGI [8] of the same molecule?
**A.** The TGI was > 100 µM.

**Q.** And the TGI [9]?
**A.** The TGI was > 100 µM.

**Q.** What about the TGI [10] of the same molecule?
**A.** The TGI was > 100 µM.

**Q.** What about the TGI [11] of the same molecule?
**A.** The TGI was > 100 µM.

**Q.** What about the TGI [12] of the same molecule?
**A.** The TGI was > 100 µM.

**Q.** What about the TGI [13] of the same molecule?
**A.** The TGI was > 100 µM.

**Q.** And the TGI [14]?
**A.** Its TGI is > 100 µM.

**Q.** And the TGI [15]?
**A.** The TGI was > 100 µM.

**Q.** What about the TGI [16] of the same molecule?
**A.** Its TGI is > 100 µM.

**Q.** With O=C(O)CN1C=C(C(=O)c2cc3ccccc3n2S(=O)(=O)c2ccccc2)CCC1 as the molecule, how does the TGI [1] read?
**A.** Its TGI is > 100 µM.

**Q.** What about the TGI [2] of the same molecule?
**A.** The TGI was > 100 µM.

**Q.** What about the TGI [17] of the same molecule?
**A.** The TGI was > 100 µM.

**Q.** And the TGI [3]?
**A.** Its TGI is > 100 µM.

**Q.** And the TGI [4]?
**A.** Its TGI is > 100 µM.

**Q.** And the TGI [5]?
**A.** The TGI was > 100 µM.

**Q.** What about the TGI [6] of the same molecule?
**A.** The TGI was > 100 µM.

**Q.** What about the TGI [7] of the same molecule?
**A.** Its TGI is > 100 µM.

**Q.** And the TGI [18]?
**A.** The TGI was 71.5 µM.

**Q.** And the TGI [8]?
**A.** The TGI was > 100 µM.

**Q.** And the TGI [9]?
**A.** Its TGI is > 100 µM.

**Q.** And the TGI [10]?
**A.** The TGI was > 100 µM.

**Q.** What about the TGI [19] of the same molecule?
**A.** The TGI was > 100 µM.

**Q.** And the TGI [12]?
**A.** Its TGI is > 100 µM.

**Q.** What about the TGI [13] of the same molecule?
**A.** Its TGI is > 100 µM.

**Q.** What about the TGI [14] of the same molecule?
**A.** Its TGI is > 100 µM.

**Q.** What about the TGI [15] of the same molecule?
**A.** Its TGI is > 100 µM.

**Q.** What about the TGI [16] of the same molecule?
**A.** Its TGI is > 100 µM.

**Q.** Which results are given for OC(c1ccc(F)cc1)C(F)(F)c1nc2ccccc2o1 (stereo not drawn)?
**A.** TGI [1]: > 100 µM; TGI [2]: > 100 µM; TGI [17]: > 100 µM; TGI [3]: > 100 µM; TGI [4]: > 100 µM; TGI [5]: > 100 µM; TGI [6]: > 100 µM; TGI [7]: > 100 µM; TGI [18]: > 100 µM; TGI [8]: > 100 µM; TGI [9]: > 100 µM; TGI [10]: > 100 µM; TGI [19]: > 100 µM; TGI [12]: > 100 µM; TGI [13]: > 100 µM; TGI [14]: > 100 µM; TGI [15]: 82.3 µM; TGI [16]: > 100 µM

**Q.** CC(C)(O)/C=C\P(=O)(O)O was tested. Which TGI [1] did it give?
**A.** Its TGI is > 100 µM.

**Q.** And the TGI [2]?
**A.** Its TGI is > 100 µM.

**Q.** What about the TGI [17] of the same molecule?
**A.** The TGI was > 100 µM.

**Q.** And the TGI [3]?
**A.** Its TGI is > 100 µM.

**Q.** What about the TGI [4] of the same molecule?
**A.** The TGI was > 100 µM.

**Q.** And the TGI [5]?
**A.** The TGI was > 100 µM.

**Q.** And the TGI [6]?
**A.** The TGI was > 100 µM.

**Q.** And the TGI [7]?
**A.** Its TGI is > 100 µM.

**Q.** And the TGI [9]?
**A.** The TGI was > 100 µM.

**Q.** And the TGI [11]?
**A.** Its TGI is > 100 µM.

**Q.** What about the TGI [19] of the same molecule?
**A.** The TGI was > 100 µM.

**Q.** And the TGI [12]?
**A.** The TGI was > 100 µM.

**Q.** And the TGI [13]?
**A.** The TGI was > 100 µM.

**Q.** What about the TGI [14] of the same molecule?
**A.** The TGI was > 100 µM.

**Q.** And the TGI [15]?
**A.** The TGI was > 100 µM.

**Q.** And the TGI [16]?
**A.** Its TGI is > 100 µM.

**Q.** With N#Cc1nc(CCN2C(=O)c3ccccc3C2=O)oc1N as the molecule, how does the TGI [1] read?
**A.** Its TGI is > 100 µM.

**Q.** What about the TGI [2] of the same molecule?
**A.** Its TGI is > 100 µM.

**Q.** And the TGI [17]?
**A.** Its TGI is > 100 µM.

**Q.** And the TGI [3]?
**A.** Its TGI is > 100 µM.

**Q.** What about the TGI [4] of the same molecule?
**A.** Its TGI is > 100 µM.

**Q.** What about the TGI [5] of the same molecule?
**A.** Its TGI is > 100 µM.

**Q.** What about the TGI [6] of the same molecule?
**A.** The TGI was > 100 µM.

**Q.** And the TGI [7]?
**A.** The TGI was > 100 µM.

**Q.** What about the TGI [8] of the same molecule?
**A.** Its TGI is > 100 µM.

**Q.** And the TGI [9]?
**A.** The TGI was > 100 µM.

**Q.** What about the TGI [10] of the same molecule?
**A.** The TGI was > 100 µM.

**Q.** What about the TGI [11] of the same molecule?
**A.** The TGI was > 100 µM.

**Q.** And the TGI [19]?
**A.** The TGI was > 100 µM.

**Q.** What about the TGI [13] of the same molecule?
**A.** Its TGI is > 100 µM.

**Q.** What about the TGI [14] of the same molecule?
**A.** The TGI was > 100 µM.

**Q.** And the TGI [15]?
**A.** Its TGI is > 100 µM.

**Q.** And the TGI [16]?
**A.** Its TGI is > 100 µM.

**Q.** What does the source list for NC1=CN(CCCO)C2=N/C(=C\c3ccccc3)C(=O)N12?
**A.** TGI [1]: > 100 µM; TGI [2]: > 100 µM; TGI [3]: > 100 µM; TGI [4]: > 100 µM; TGI [5]: > 100 µM; TGI [6]: > 100 µM; TGI [7]: > 100 µM; TGI [18]: > 100 µM; TGI [8]: > 100 µM; TGI [9]: > 100 µM; TGI [10]: > 100 µM; TGI [11]: > 100 µM; TGI [19]: > 100 µM; TGI [12]: > 100 µM; TGI [13]: > 100 µM; TGI [14]: > 100 µM; TGI [15]: > 100 µM; TGI [16]: > 100 µM

**Q.** What does the source list for CC1(C)O[C@@H]([C@H](O)CO)[C@H](O)[C@@H](C2SCCCS2)O1?
**A.** TGI [1]: > 100 µM; TGI [2]: > 100 µM; TGI [17]: > 100 µM; TGI [3]: > 100 µM; TGI [4]: > 100 µM; TGI [5]: > 100 µM; TGI [6]: > 100 µM; TGI [7]: > 100 µM; TGI [9]: > 100 µM; TGI [10]: > 100 µM; TGI [19]: > 100 µM; TGI [12]: > 100 µM; TGI [13]: > 100 µM; TGI [14]: > 100 µM; TGI [16]: > 100 µM

From PubChem BioAssay (NCI)
